Source: ChEMBL document CHEMBL4219187, “A new target for Alzheimer's disease: A small molecule SERCA activator is neuroprotective in vitro and improves memory and cognition in APP/PS1 mice” (Bioorg Med Chem Lett, 2018)
Activity calls are given as the source filed them. No cut-off for these calls is given here.

Columns and labels:
[1] = Clearance in mouse at 2 mg/kg, po; type: ADME, organism-based; details: in vivo
[2] = Ratio of drug level in brain to plasma in mouse measured at 1 hr post dose; type: ADME, cell-free; details: brain and plasma, read-out: BPR
[3] = Half life in human plasma; type: ADME, cell-free
Mus musculus [4] = assay: Toxicity in mouse at 50 mg/kg, po; type: organism-based; details: in vivo
[5] = Cytotoxicity against rat CSM14.1 cells assessed as cell viability after 20 hrs by ATPlite assay relative to control; type: cell-based; details: read-out: Activity
Mus musculus [6] = assay: Cognition enhancement activity in APPSWE/PSEN1dE9 double-transgenic mouse model of Alzheimer's disease assessed as decrease in total swim distance for hidden platform at 10 mg/kg, ip administered daily for 5 days per week for 4 weeks by Morris water maze test; type: functional, organism-based
[7] = Half life in human microsomes; type: ADME, Microsome
[8] = Half life in mouse hepatocytes; type: ADME, cell-based, Hepatocyte
Mus musculus [9] = assay: Antialzheimer activity in APPSWE/PSEN1dE9 double-transgenic mouse model of Alzheimer's disease assessed as decrease in impairment of motor coordination at 10 mg/kg, ip administered daily for 5 days per week for 4 weeks by rotarod test; type: functional, organism-based
[10] = biological target: Voltage-gated inwardly rectifying potassium channel KCNH2 (Homo sapiens, UniProt Q12809); assay: Inhibition of human ERG up to 10 uM
Mus musculus [11] = assay: Antidepressant activity in APPSWE/PSEN1dE9 double-transgenic mouse model of Alzheimer's disease assessed as reduction in immobility time at 10 mg/kg, ip administered daily for 5 days per week for 4 weeks by tail suspension test; type: functional, organism-based
Rattus norvegicus = species on record: Rattus norvegicus; assay: Cytoprotection against thapsigargin induced cell death in rat CSM14.1 cells assessed as increase in cell viability preincubated for 2 hrs followed by thapsigargin induction measured after 20 hrs by ATPlite assay; type: functional, cell-based
[12] = Half life in human hepatocytes; type: ADME, cell-based, Hepatocyte
[13] = Half life in mouse microsomes; type: ADME, Microsome
[14] = Inhibition of CYP450 (unknown origin) up to 5 uM; type: ADME; details: human
[15] = Oral bioavailability in mouse at 50 mg/kg; type: ADME, organism-based; details: in vivo
HeLa = assay: Activation of SERCA in human HeLa cells assessed as protection against thapsigargin induced depletion of ER calcium stores at 10 uM up to 150 secs by cameleon plasmid-based fluorescence assay; type: cell-based
[16] = Half life in mouse plasma; type: ADME, cell-free

Voltage-gated inwardly rectifying potassium channel KCNH2, sequence (Q12809 whole entry): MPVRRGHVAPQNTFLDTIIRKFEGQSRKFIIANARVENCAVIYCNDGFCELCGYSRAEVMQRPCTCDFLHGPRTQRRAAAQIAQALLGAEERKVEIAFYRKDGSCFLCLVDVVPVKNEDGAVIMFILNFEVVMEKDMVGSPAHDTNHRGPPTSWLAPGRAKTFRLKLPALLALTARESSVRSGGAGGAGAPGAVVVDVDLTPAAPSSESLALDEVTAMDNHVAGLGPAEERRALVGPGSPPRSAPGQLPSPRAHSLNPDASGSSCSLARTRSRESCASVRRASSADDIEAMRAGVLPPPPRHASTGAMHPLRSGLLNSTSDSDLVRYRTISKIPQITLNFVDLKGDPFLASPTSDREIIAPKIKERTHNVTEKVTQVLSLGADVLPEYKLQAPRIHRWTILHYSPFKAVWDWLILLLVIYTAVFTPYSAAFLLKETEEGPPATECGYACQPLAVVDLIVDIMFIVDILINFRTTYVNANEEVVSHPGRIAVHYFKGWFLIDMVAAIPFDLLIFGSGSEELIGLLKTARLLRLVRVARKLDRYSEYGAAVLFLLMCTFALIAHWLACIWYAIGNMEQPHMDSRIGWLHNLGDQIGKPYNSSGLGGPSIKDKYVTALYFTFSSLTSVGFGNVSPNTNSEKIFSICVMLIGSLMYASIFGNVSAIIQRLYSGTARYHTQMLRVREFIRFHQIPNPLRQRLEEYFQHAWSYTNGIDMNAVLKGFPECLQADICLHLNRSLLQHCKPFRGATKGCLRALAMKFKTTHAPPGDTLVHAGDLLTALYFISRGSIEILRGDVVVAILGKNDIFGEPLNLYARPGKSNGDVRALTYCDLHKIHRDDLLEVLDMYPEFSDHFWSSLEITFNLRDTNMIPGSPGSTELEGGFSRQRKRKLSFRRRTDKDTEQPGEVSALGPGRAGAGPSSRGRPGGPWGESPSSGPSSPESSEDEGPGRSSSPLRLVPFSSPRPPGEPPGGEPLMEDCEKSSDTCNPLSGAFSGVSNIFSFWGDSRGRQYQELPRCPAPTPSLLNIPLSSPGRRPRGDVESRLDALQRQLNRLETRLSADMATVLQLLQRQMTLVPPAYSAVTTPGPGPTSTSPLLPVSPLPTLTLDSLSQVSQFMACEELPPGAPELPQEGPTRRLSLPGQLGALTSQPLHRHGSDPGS

CL/F [1]: 251 mL/min/kg | Kp at 1 h [2]: 3 | half-life [3]: > 300 min | half-life [7]: 15 min | half-life [8]: 2 min | half-life [12]: 45 min | half-life [13]: 2 min | inhibition (INH) [14]: Not Active | bioavailability [15]: 37% | half-life [16]: 140 min
Structure (SMILES): Cc1ccc2cccc(NC(=O)c3ccc(OC(C)C)cc3)c2n1
Activity (Mus musculus [4]): Non-Toxic | viability at 20 h [5]: 100% | Activity (Mus musculus [6]): Active | Activity (Mus musculus [9]): Active | inhibition (INH) [10]: Active | Activity (Mus musculus [11]): Active | Activity (Rattus norvegicus): Dose-dependent effect | Activity (HeLa): Active
